Source: US20250122207A1, “AP2 ASSOCIATED KINASE 1 INHIBITORS AND USES THEREOF” (Satellos Bioscience Inc., priority 2023, published 2025)
Where two headings read alike, the source gives them in different places.

Experiments:
[1] = target: T1, AAK1 (amino acids T27-A365) (Homo sapiens, UniProt Q2M2I8); test: AAK1 pSENs assay; format: biochemical
T1 construct: against AAK1 (amino acids T27-A365); 6His (N, cleaved yes)
Summary of the method: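 Biotinylated, tag-free AAK1 T27-A365 expressed in E. coli was held at 20 nM in enzyme solution (HEPES pH 7.5, 10 mM MgCl2, DTT, EGTA, Brij35, BSA) and preincubated with compound for 15 min at 25 °C. The reaction was started with an equal volume of substrate solution containing 30 uM AQT0759 peptide and 70 uM ATP. IC50 determined.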

[2] = target: T2, BIKE (amino acids S38-E345) (K320A, K321A) (Homo sapiens, UniProt Q9NSY1, K320A/K321A); test: BIKE pSENs assay; format: biochemical
T2 construct: against BIKE (amino acids S38-E345) (K320A, K321A); 6His (N, cleaved yes)
Method: (§1) The recombinant proteins were independently expressed in Escherichia coli BL21(DE3) cells cultured in Luria-Bertani (LB) medium until OD600 reached 0.6-0.8, then cooled to 15° C. and supplemented with 0.5 mM isopropyl 1-thio-D-galactopyranoside (IPTG) induce protein expression 16 h. Cells were harvested and resuspended in lysis buffer (50 mM HEPES pH 7.5, 500 mM NaCl, 5 mM imidazole, 5% glycerol, 0.5 mM Tris (2-carboxyethyl) phosphine (TCEP), cOmplete Protease Inhibitor Tablet (Roche)) and lysed by microfludics high pressure homogenizer (UH-06, Union-Biotech). Proteins were purified using […] chromatography (His FF column, Bestchrom) and eluted stepwise in binding buffer with 20-300 mM imidazole. Removal of the hexahistidine tag was performed at 4° C. overnight using recombinant TEV protease and reacted with BirA to obtain the corresponding biotinylated-AAK1, BIKE or GAK proteins. Further separated in the reverse Strep column (Strep-Tactin® XT, IBA). The Biotin elution sample was collected containing untagged biotinylated protein was then purified by Ion-exchange chromatography (Mono Q 10/100 GL, Cytiva) and Size-exclusion chromatography (HiLoad 16/600 Superdex 200 pg, Cytiva). The pure protein was stored in a storage buffer 50 mM HEPES (pH 7.5), 300 mM NaCl, 5% glycerol at −80° C. Protein were characterized by SDS-PAGE, LC-MS and aSEC.
BIKE protein was dissolved at 20 nM in 1× enzyme solution (50 mM HEPES pH7.5, 10 mM MgCl2, 1 mM DTT, 1% glycerol, 0.5 mM EGTA, 0.01% Briji35, 0.02% BSA) and 12.5 ul was incubated with 250 nl DMSO or 250 nl compound in DMSO at 25° C. for 15 min. The reaction was started by addition of 12.5 ul of 30 uM AQT0759 (Assayquant, CSKS-AQT0759B) and 40 uM ATP which were diluted in 1× substrate dilution buffer (50 mM HEPES pH7.5, 10 mM MgCl2, 1 mM DTT, 1% glycerol, 0.5 mM EGTA, 0.01% Briji35).

[3] = target: T3, GAK (amino acids Q25-N335) (Homo sapiens, UniProt O14976); test: GAK pSENs assay; format: biochemical
T3 construct: against GAK (amino acids Q25-N335); 6His (N, cleaved yes)
T3 sequence (O14976 25-335): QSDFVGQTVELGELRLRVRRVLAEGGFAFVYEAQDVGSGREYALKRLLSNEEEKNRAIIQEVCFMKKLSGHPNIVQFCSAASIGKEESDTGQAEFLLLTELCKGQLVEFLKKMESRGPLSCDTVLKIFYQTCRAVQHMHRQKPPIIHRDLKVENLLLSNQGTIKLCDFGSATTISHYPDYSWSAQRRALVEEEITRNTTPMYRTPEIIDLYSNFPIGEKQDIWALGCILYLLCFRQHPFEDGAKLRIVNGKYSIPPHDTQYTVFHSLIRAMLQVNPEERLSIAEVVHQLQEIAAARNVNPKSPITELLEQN
Method: as §1
This example describes one illustrative method for determining the IC50 of the compounds of the present invention against GAK (amino acids Q25-N335).

AAK1 = AAK1 (Homo sapiens, UniProt Q2M2I8); test: pAP2M1 cell-based assay (in-cell Western)
Text: pAP2M1 Cell-Based Assay (in-Cell Western):
The plate was read on Licor Odyssey CLx imaging system (LICOR) to acquire fluorescence intensity at 700 channel and 800 channel.
Data analysis: Fluorescence intensity at 700 channel served as internal standard and 800 channel were normalized with 700 channel.

[4] = class symbols, read-out: AAK1 pSENs: EIC50
[5] = class symbols, read-out: BIKE pSENs: IC50
[6] = class symbols, read-out: GAK pSENs:IC50
[7] = Hela cells co-transfected with AP2M1 and AAK1, 3 hr treatment, class symbols, read-out: AAK1 In-cell Western: IC50

Sequence of AAK1 (Q2M2I8 whole entry): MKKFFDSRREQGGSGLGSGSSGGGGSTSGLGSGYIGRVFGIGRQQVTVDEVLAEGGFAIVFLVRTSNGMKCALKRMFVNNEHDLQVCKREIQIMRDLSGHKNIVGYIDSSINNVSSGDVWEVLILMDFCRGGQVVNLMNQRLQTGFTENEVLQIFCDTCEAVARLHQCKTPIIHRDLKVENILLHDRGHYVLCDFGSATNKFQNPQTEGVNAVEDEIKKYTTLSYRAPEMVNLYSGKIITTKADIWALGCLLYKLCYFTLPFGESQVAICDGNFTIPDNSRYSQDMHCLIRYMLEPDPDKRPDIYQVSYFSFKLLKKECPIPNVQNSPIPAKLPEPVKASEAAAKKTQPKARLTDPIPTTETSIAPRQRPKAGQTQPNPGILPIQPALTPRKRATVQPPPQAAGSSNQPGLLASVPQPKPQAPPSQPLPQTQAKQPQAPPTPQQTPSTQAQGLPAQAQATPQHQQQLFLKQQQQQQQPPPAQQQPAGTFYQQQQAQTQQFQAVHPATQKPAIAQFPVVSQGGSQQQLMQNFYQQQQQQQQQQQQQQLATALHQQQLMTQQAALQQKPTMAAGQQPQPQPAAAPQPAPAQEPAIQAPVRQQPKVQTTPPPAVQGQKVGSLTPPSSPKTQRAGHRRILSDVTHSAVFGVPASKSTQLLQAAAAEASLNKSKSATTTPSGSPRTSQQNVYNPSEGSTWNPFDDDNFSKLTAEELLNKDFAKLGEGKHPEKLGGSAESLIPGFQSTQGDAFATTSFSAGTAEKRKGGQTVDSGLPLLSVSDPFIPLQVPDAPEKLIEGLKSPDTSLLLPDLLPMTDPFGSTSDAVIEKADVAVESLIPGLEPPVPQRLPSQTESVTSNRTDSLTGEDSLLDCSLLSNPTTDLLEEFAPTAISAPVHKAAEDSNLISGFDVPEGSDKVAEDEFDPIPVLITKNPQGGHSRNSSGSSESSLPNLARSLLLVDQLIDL
T2 sequence (Q9NSY1 38-345 K320A/K321A): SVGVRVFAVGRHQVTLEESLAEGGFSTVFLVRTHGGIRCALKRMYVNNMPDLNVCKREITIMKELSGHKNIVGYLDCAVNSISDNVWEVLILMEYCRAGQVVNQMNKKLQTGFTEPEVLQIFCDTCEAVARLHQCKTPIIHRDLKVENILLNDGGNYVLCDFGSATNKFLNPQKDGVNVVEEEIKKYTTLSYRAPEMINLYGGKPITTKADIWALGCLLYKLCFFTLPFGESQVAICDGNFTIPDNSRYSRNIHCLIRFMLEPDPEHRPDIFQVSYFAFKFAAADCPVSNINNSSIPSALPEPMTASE
T1 sequence (Q2M2I8 27-365): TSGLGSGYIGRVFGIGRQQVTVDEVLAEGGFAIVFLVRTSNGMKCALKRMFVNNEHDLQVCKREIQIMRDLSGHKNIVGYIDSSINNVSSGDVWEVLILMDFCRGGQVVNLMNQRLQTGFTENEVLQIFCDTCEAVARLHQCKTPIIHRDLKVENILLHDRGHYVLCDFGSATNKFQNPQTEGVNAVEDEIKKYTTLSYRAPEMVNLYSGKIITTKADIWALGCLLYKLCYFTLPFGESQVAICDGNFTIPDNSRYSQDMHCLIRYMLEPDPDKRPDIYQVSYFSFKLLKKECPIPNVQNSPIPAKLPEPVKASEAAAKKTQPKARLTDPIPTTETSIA

## [2H]C([2H])([2H])N1C[C@@H](OC(=O)N2CCN(c3nc4c(-c5cc(OC)cnc5OC5CC5)cnn4cc3F)CC2)CC1=O [Compound I-117, [(3S)-5-oxo-1-(trideuteriomethyl)pyrrolidin-3-yl]4-[3-[2-(cyclopropoxy)-5-methoxy-3-pyridyl]-6-fluoro-pyrazolo[1,5-a]pyrimidin-5-yl]piperazine-1-carboxylate]
[1]; [4]
  IC50: 0.001 to 0.05 µM
[2]; [5]
  IC50: 0.001 to 0.05 µM
[3]; [6]
  IC50: 0.501 to 1.5 µM

## CN1C[C@H](OC(=O)N2CCN(c3ccn4ncc(-c5cccnc5OC5CC5)c4n3)CC2)CC1=O [Compound I-94]
[1]; [4]
  IC50: 0.001 to 0.05 µM
AAK1; [7]
  IC50: 0.501 to 1.5 µM
[2]
  IC50: 0.151 to 0.5 µM
[3]
  IC50: > 1.5 µM

## c1cc2nc(N3CCNCC3)ccn2n1 [Compound I-105, 5-piperazin-1-ylpyrazolo[1,5-a]pyrimidine]
[1]
  IC50: > 1.5 µM
AAK1
  IC50: > 1.5 µM
[2]
  IC50: > 1.5 µM
[3]
  IC50: > 1.5 µM

## Brc1cnn2ccc(N3CCNCC3)nc12 [Compound I-103, 3-bromo-5-piperazin-1-yl-pyrazolo[1,5-a]pyrimidine]
[1]
  IC50: > 1.5 µM
AAK1
  IC50: > 1.5 µM
[2]
  IC50: > 1.5 µM
[3]
  IC50: > 1.5 µM

## Oc1ncccc1-c1cnn2ccc(N3CCNCC3)nc12 [Compound I-106, 3-(5-piperazin-1-ylpyrazolo[1,5-a]pyrimidin-3-yl)pyridin-2-ol]
[1]; [4]
  IC50: 0.501 to 1.5 µM
AAK1; [7]
  IC50: > 1.5 µM
[2]; [5]
  IC50: 0.151 to 0.5 µM
[3]; [6]
  IC50: > 1.5 µM

## CC(C)Oc1ncccc1-c1cnn2ccc(N3CCN(C(=O)O[C@@]4(C)CCNC4)CC3)nc12 [Compound I-21, [(3S)-3-Methylpyrrolidin-3-yl]4-[3-(2-isopropoxy-3-pyridyl)pyrazolo[1,5-a]pyrimidin-5-yl]piperazine-1-carboxylate]
[1]; [4]
  IC50: 0.051 to 0.15 µM
AAK1; [7]
  IC50: > 1.5 µM
[3]; [6]
  IC50: 0.501 to 1.5 µM

## COc1ncccc1-c1cnn2ccc(N3CCN(C(=O)OC4(C)COC4)CC3)nc12 [RC-1, (3-methyloxetan-3-yl)-4-[3-(2-methoxy-3-pyridyl)pyrazolo[1,5-a]pyrimidin-5-yl]piperazine-1-carboxylate, reference compound]
[1]; numeric values, read-out: AAK1 pSENs: EIC50
  IC50: 0.00868 µM
AAK1; Hela cells co-transfected with AP2M1 and AAK1, 3 hr treatment, numeric values, read-out: AAK1 In-cell Western: IC50
  IC50: 0.157 µM
[2]; numeric values, read-out: BIKE pSENs: IC50
  IC50: 0.0846 µM
[3]; numeric values, read-out: GAK pSENs:IC50
  IC50: 1.05 µM

## C#CC1(OC(=O)N2CCN(c3ccn4ncc(-c5cccnc5OC)c4n3)CC2)CCNC1 (centres unmarked) [Compound I-9, (3-Ethynylpyrrolidin-3-yl) 4-[3-(2-methoxy-3-pyridyl)pyrazolo[1,5-a]pyrimidin-5-yl]piperazine-1-carboxylate]
[1]; [4]
  IC50: 0.001 to 0.05 µM
AAK1; [7]
  IC50: 0.051 to 0.15 µM
[2]; [5]
  IC50: 0.001 to 0.05 µM
[3]; [6]
  IC50: 0.151 to 0.5 µM

## COc1ncccc1-c1cnn2ccc(NCCN(C)C(=O)O[C@H]3CO[C@H]4OCC[C@H]43)nc12 [Compound I-70, (3R,3aS,6aR)-hexahydrofuro[2,3-b]furan-3-yl (2-((3-(2-methoxypyridin-3-yl)pyrazolo[1,5-a]pyrimidin-5-yl)amino)ethyl)(methyl)carbamate]
[1]; [4]
  IC50: 0.001 to 0.05 µM
AAK1; [7]
  IC50: 0.501 to 1.5 µM
[2]; [5]
  IC50: 0.051 to 0.15 µM
[3]; [6]
  IC50: 0.501 to 1.5 µM

## CC(C)Oc1ncccc1-c1cnn2ccc(N3CCN(C(=O)OC4(C)CCNC4)CC3)nc12 (centres unmarked) [Compound I-21-5, (3-methylpyrrolidin-3-yl)-4-[3-(2-isopropoxy-3-pyridyl)pyrazolo[1,5-a]pyrimidin-5-yl]piperazine-1-carboxylate]
[1]; [4]
  IC50: 0.001 to 0.05 µM
AAK1; [7]
  IC50: 0.151 to 0.5 µM
[2]; [5]
  IC50: 0.151 to 0.5 µM
[3]; [6]
  IC50: 0.151 to 0.5 µM

## O=C(O[C@H]1CO[C@H]2OCC[C@H]21)N1CCN(c2ccn3ncc(-c4cnccn4)c3n2)CC1 [Compound I-66, [(3aS,4R,6aR)-2,3,3a,4,5,6a-hexahydrofuro[2,3-b]furan-4-yl]-4-(3-pyrazin-2-ylpyrazolo[1,5-a]pyrimidin-5-yl)piperazine-1-carboxylate]
[1]; [4]
  IC50: 0.151 to 0.5 µM
AAK1; [7]
  IC50: 0.501 to 1.5 µM
[3]; [6]
  IC50: 0.501 to 1.5 µM

## COc1ncccc1-c1cnn2ccc(N3CCN(C(=O)OC(C)C)CC3)nc12 [LP-935509]
[2]
  IC50: 0.0333 µM
[3]
  IC50: 0.72 µM

## CC1(OC(=O)N2CCN(c3ccn4ncc(-c5cccnc5OCC5COC5)c4n3)CC2)COC1 [Compound I-20]
[1]; [4]
  IC50: 0.151 to 0.5 µM
AAK1; [7]
  IC50: > 1.5 µM
[3]; [6]
  IC50: 0.501 to 1.5 µM

## CC(C)(C)OC(=O)N1CCN(c2ccn3ncc(-c4cccnc4O)c3n2)CC1 [Compound I-102, tert-butyl 4-[3-(2-hydroxy-3-pyridyl)pyrazolo[1,5-a]pyrimidin-5-yl]piperazine-1-carboxylate]
[1]; [4]
  IC50: 0.001 to 0.05 µM
AAK1; [7]
  IC50: 0.501 to 1.5 µM
[2]; [5]
  IC50: 0.051 to 0.15 µM
[3]; [6]
  IC50: > 1.5 µM

## C#C[C@]1(OC(=O)N2CCN(c3ccn4ncc(-c5cccnc5OC5CC5)c4n3)CC2)CCNC1 [Compound I-15, [(3R)-3-Ethynylpyrrolidin-3-yl]-4-[3-[2-(cyclopropoxy)-3-pyridyl]pyrazolo[1,5-a]pyrimidin-5-yl]piperazine-1-carboxylate]
[1]; [4]
  IC50: 0.001 to 0.05 µM
AAK1; [7]
  IC50: 0.051 to 0.15 µM
[2]; [5]
  IC50: 0.151 to 0.5 µM
[3]; [6]
  IC50: 0.151 to 0.5 µM

## O=C1C[C@H](OC(=O)N2CCN(c3ccn4ncc(-c5cccnc5NC5CCC5)c4n3)CC2)CN1 [Compound I-46, [(3S)-5-oxopyrrolidin-3-yl]4-[3-[2-(cyclobutylamino)-3-pyridyl]pyrazolo [1,5-a]pyrimidin-5-yl]piperazine-1-carboxylate]
[1]; [4]
  IC50: > 1.5 µM
AAK1; [7]
  IC50: > 1.5 µM
[3]; [6]
  IC50: 0.501 to 1.5 µM

## CC1(OC(=O)N2CCN(c3ccn4ncc(-c5cccnc5OC5CC5)c4n3)CC2)CCNC1 (centres unmarked) [Compound I-13-5, (3-Methylpyrrolidin-3-yl) 4-[3-[2-(cyclopropoxy)-3-pyridyl]pyrazolo[1,5-a]pyrimidin-5-yl]piperazine-1-carboxylate]
[2]; [5]
  IC50: 0.051 to 0.15 µM
[3]; [6]
  IC50: 0.151 to 0.5 µM

## C[C@@]1(OC(=O)N[C@H]2CCN(c3ccn4ncc(-c5cccnc5OC5CC5)c4n3)C2)CCNC1 [Compound I-57, (R)-3-methylpyrrolidin-3-yl ((S)-1-(3-(2-cyclopropoxypyridin-3-yl)pyrazolo[1,5-a]pyrimidin-5-yl)pyrrolidin-3-yl)carbamate]
[1]; [4]
  IC50: 0.051 to 0.15 µM
AAK1; [7]
  IC50: > 1.5 µM
[3]; [6]
  IC50: 0.501 to 1.5 µM

## CC(C)N1C[C@@H](OC(=O)N2CCN(c3ccn4ncc(-c5cccnc5OC5CC5)c4n3)CC2)CC1=O [Compound I-114, [(3S)-1-isopropyl-5-oxo-pyrrolidin-3-yl]-4-[3-[2-(cyclopropoxy)-3-pyridyl]pyrazolo[1,5-a]pyrimidin-5-yl]piperazine-1-carboxylate]
[1]; [4]
  IC50: 0.051 to 0.15 µM
AAK1; [7]
  IC50: > 1.5 µM
[2]; [5]
  IC50: 0.501 to 1.5 µM

## CC(C)(C)OC(=O)N1CCC(N2C[C@@H](OC(=O)N3CCN(c4ccn5ncc(-c6cccnc6OC6CC6)c5n4)CC3)CC2=O)CC1 [Compound I-30, [(3S)-1-(1-tert-Butoxycarbonyl-4-piperidyl)-5-oxo-pyrrolidin-3-yl]4-[3-[2-(cyclopropoxy)-3-pyridyl]pyrazolo[1,5-a]pyrimidin-5-yl]piperazine-1-carboxylate]
[1]; [4]
  IC50: 0.051 to 0.15 µM
AAK1; [7]
  IC50: > 1.5 µM
[2]; [5]
  IC50: 0.501 to 1.5 µM
